The values that follow are results of earlier work, collected in patent publication US9199951B2, “Process for the manufacture of a 1,2-epoxide” (Hexion Inc., priority 2008, dated 2015).

≈ marks a conversion by molar mass, not a printed value.

The conditions of this data set: grams per liter water at 20° C.; for Solubility in water: terminal olefins of Table 2.

On to `C=CCCCCCC` [1-octene], for which the Solubility in water is 0.27 µg/mL (≈ 2.41 µM). With `C=CCOC(C)=O` [Allyl acetate], the solubility (usually the dissolved amount per volume that the medium holds) is “about 10 g/L” and the Solubility in water was approximately 10000 µg/mL.

Take `C=CCO` [Allyl alcohol]: the Solubility in water entry is recorded as “miscible”.

On to `C=CCCl` [Allyl chloride], for which the solubility is 3600 µg/mL and the Solubility in water was 3600 µg/mL. Turning to `C=CCBr` [allyl bromide], the solubility was 4000 µg/mL.
